Read-outs that look alike come from different tables or passages of the source.
Assays:
VEGFR-2 = system: VEGFR-2; set-up: method as in earlier work; details: read-out: VEGFR-2 IC50 ± SD; cited from earlier work
[1] = system: RET-altered / thyroid / lung tumors; details: cited from earlier work
MET = system: MET; set-up: method as in earlier work; details: read-out: MET IC50 ± SD; cited from earlier work
patients = details: cited from earlier work
[2] = system: HEK293T-KIF5B-RET^V804M xenograft; assay: Tumor xenograft model; type: in vivo, BALB/c nude mice; details: 20 mg/kg twice daily, 14 days
Procedure: All procedures relating to animal handling, care, and treatment were performed according to the Beijing Laboratory Animal Management Regulations. 6-week-old male BALB/c nude mice were inoculated subcutaneously into the flank with Baf3-CCDC6-RET^WT (5*10^6 cells/ 0.1 mL/ each), Baf3-CCDC6-RET^M918T (5*10^6 cells/0.1 mL/each), Baf3-CCDC6-RET^V804M (5*10^6 cells/ 0.1 mL/ each), or HEK293T-KIF5B-RET^V804M (5*10^6 cells/ 0.1 mL/ each). Mice were randomized by tumor size into groups of 10 to 12 when tumor volume reached approximately 100-150 mm^3. […] Tumor size and body weight were measured two times each week, and tumor volume was calculated with the following formula: [length × (width)^2]/ 2. Statistical significance was calculated by using two-way ANOVA test to assess the difference in tumor volumes between the control (vehicle-treated) and treatment groups.

hERG potassium channel = hERG potassium channel (Homo sapiens, UniProt Q12809); set-up: method as in literature; details: in vitro GLP hERG assay, ref literature; cited from earlier work
RET = details: cited from earlier work

Sequence of hERG potassium channel (Q12809 whole entry): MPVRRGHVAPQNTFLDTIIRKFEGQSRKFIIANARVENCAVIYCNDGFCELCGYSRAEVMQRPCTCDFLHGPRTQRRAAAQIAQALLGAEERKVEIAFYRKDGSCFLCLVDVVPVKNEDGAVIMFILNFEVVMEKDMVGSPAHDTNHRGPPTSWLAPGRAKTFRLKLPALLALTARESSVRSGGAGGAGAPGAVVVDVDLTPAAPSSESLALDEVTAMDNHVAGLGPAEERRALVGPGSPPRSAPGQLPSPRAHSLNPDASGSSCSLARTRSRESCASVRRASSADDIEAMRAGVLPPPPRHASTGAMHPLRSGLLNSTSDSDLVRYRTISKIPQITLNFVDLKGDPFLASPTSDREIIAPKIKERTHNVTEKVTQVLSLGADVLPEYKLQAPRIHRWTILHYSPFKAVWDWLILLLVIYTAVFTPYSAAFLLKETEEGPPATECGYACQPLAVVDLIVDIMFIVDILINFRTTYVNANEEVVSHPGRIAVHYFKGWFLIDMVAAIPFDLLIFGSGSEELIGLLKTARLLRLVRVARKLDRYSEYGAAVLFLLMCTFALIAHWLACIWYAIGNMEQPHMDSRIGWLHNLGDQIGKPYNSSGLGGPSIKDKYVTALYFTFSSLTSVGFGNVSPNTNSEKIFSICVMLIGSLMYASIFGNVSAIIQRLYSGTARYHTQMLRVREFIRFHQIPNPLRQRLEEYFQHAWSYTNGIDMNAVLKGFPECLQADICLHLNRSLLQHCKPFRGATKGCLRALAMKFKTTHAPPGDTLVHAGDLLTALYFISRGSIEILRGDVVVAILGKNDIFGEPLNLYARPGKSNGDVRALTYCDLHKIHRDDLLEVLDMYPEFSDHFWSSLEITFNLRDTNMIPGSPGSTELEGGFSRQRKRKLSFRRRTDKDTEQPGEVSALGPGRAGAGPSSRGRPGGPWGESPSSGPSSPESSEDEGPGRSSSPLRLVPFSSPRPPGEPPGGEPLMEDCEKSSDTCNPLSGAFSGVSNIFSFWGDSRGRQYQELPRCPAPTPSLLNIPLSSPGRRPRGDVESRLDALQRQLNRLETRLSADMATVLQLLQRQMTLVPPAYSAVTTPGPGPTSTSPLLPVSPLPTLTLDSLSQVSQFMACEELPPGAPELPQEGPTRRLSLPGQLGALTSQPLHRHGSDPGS

COc1cc2nccc(Oc3ccc(NC(=O)C4(C(=O)Nc5ccc(F)cc5)CC4)cc3)c2cc1OC [cabozantinib]
IC50 (VEGFR-2): 0.035 ± 0.01 nM | ORR ([1]; NCT00704730, MTC ref 89): 28% | mPFS ([1]; NCT00704730, MTC, 140 mg/d ref 89): 11.2 months | mOS ([1]; RET M918T-positive subgroup ref 89): 44.3 months | IC50 (MET): 1.3 ± 1.2 nM

COc1cc2nccc(Oc3ccc(NC(=O)NC4CC4)c(Cl)c3)c2cc1C(N)=O [lenvatinib]
Patients with grade 3 or higher AEs (patients; NCT01877083 ref 93): 92% | ORR ([1]; NCT01877083, RET fusion NSCLC, 24 mg/d ref 93): 16% | DCR ([1]; NCT01877083 ref 93): 76% | mPFS ([1]; NCT01877083 ref 93): 7.3 months

CO[C@]1(C(=O)N[C@@H](C)c2ccc(-n3cc(F)cn3)nc2)CC[C@H](c2nc(C)cc(Nc3cc(C)[nH]n3)n2)CC1 [pralsetinib]
Grade ≥ 3 TRAEs (patients; ARROW ref 22,29): 54% | Grade ≥ 3 anemia (patients; ARROW ref 22,29): 12% | Grade ≥ 3 hypertension (patients; ARROW ref 22,29): 12% | Grade ≥ 3 leukopenia (patients; ARROW ref 22,29): 8% | Grade ≥ 3 lymphopenia (patients; ARROW ref 22,29): 9% | Grade ≥ 3 neutropenia (patients; ARROW ref 22,29): 20% | TRSAEs (patients; ARROW ref 22,29): 24% | Treatment-induced deaths (patients): 0.4% | Treatment-induced discontinuations (patients): 7% | Treatment-induced dose reductions (patients): 38% | Complete response ([1]; ARROW, NSCLC ref 101): 14% | Patients with tumor shrinkage ([1]; ARROW, NSCLC ref 101): 95% | ORR ([1]; ARROW, RET fusion-positive NSCLC ref 101): 61% | ORR ([1]; ARROW, RET fusion-positive NSCLC, previously treated ref 29): 59% | ORR ([1]; ARROW, RET fusion-positive NSCLC, treatment-naïve ref 29): 72% | ORR ([1]; ARROW, RET-mutant MTC previously treated with vandetanib ref 101): 60% | ORR ([1]; ARROW, treatment-naïve MTC ref 101): 74% | ORR ([1]; ARROW, treatment-naïve RET-mutant MTC ref 31): 71%

COc1ccc(CN2C3CC2CN(c2ccc(-c4cc(OCC(C)(C)O)cn5ncc(C#N)c45)cn2)C3)cn1 [selpercatinib]
Grade ≥ 3 TRAEs (patients; LIBRETTO-001 ref 28): 38.6% | Grade ≥ 3 hypertension (patients; LIBRETTO-001 ref 28): 13.2% | Grade ≥ 3 increased ALT (patients; LIBRETTO-001 ref 28): 9.0% | Grade ≥ 3 increased AST (patients; LIBRETTO-001 ref 28): 6.3% | TRSAEs (patients; LIBRETTO-001 ref 28): 11% | Treatment-induced deaths (patients): 0.1% | Treatment-induced discontinuations (patients): 3% | Treatment-induced dose reductions (patients): 41% | TGI [2]: 45.2% | IC50 (hERG potassium channel): 1100 nM | ORR ([1]; LIBRETTO-001, 19 RET fusion-positive thyroid cancer ref 96-97): 79% | ORR ([1]; LIBRETTO-001, 39 NSCLC without systemic therapy ref 96-97): 84% | ORR ([1]; LIBRETTO-001, 105 RET fusion-positive NSCLC ref 96-97): 64% | ORR ([1]; LIBRETTO-001, NSCLC, previously treated ref 28): 61% | ORR ([1]; LIBRETTO-001, RET-mutant thyroid cancer, 55 previously treated ref 96-97): 69% | ORR ([1]; LIBRETTO-001, RET-mutant thyroid cancer, 88 not previously treated ref 96-97): 73% | ORR ([1]; LIBRETTO-431, NSCLC, treatment-naïve ref 30): 84% | ORR ([1]; LIBRETTO-531, RET-mutant MTC ref 32): 69.4% | 1-year DoR rate ([1]; previously treated ref 28): 73.1% | 1-year PFS rate ([1]; previously treated ref 28): 70.5% | 1-year DoR rate ([1]; treatment-naïve ref 28): 66.1% | 1-year PFS rate ([1]; treatment-naïve ref 28): 70.6%

CNC(=O)c1cc(Oc2ccc(NC(=O)Nc3ccc(Cl)c(C(F)(F)F)c3)cc2)ccn1 [sorafenib]
PR rate ([1]; DECISION ref 80): 12.2%

— PMC11532403 (Signal Transduction and Targeted Therapy, 2024)
